Laboratory results: ChEMBL document CHEMBL1147595, “Design and synthesis of photoactivatable aryl diketo acid-containing HIV-1 integrase inhibitors as potential affinity probes” (Bioorg Med Chem Lett, 2004)
Where “and” joins values, the source holds several entries; their conditions need not be identical. Equal values may be shown once.

Legend:
[1] = target: T1, Human immunodeficiency virus type 1 integrase (Human immunodeficiency virus 1, UniProt Q7ZJM1); assay: Inhibition of Integrase (strand transfer) as measured in an in vitro assay
T1 sequence (Q7ZJM1 whole entry): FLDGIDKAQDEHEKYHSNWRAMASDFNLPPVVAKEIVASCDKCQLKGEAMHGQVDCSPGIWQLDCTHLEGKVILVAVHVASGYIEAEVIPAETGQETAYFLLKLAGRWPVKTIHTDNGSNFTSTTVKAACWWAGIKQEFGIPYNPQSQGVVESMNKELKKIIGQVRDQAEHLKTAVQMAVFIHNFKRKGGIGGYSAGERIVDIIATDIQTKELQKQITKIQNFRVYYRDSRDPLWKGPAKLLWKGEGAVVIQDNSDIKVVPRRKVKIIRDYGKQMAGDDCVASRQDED

[2] = target: T1, Human immunodeficiency virus type 1 integrase; assay: Inhibition of Integrase catalyzed strand transfer (ST) as measured in an in vitro assay
[3] = target: T1, Human immunodeficiency virus type 1 integrase; assay: Inhibition of Integrase (3'-processing) as measured in an in vitro assay
[4] = target: T1, Human immunodeficiency virus type 1 integrase; assay: Inhibition of integrase catalyzed strand transfer (ST) as measured in an in vitro assay

| IC50 [1] [µM] | IC50 [2] | IC50 [3] [µM] | IC50 [4] [µM] | Structure (SMILES) |
| --- | --- | --- | --- | --- |
| < 0.1 | – | – | – | O=C(O)C(=O)CC(=O)c1cccc(Cc2ccccc2)c1 |
| – | 2.1 µM | > 100 | 2.7 | O=C(O)C(=O)CC(=O)c1cccc(C(=O)c2ccccc2)c1 |
| – | 5.3 µM and 5.2 µM | > 100 | – | [N-]=[N+]=Nc1cccc(C(=O)CC(=O)C(=O)O)c1 |
| – | 19 µM and 29 µM | > 100 | – | O=C(O)C(=O)CC(=O)c1cccc(OCc2ccc(C(=O)c3ccccc3)cc2)c1 |
